“And” between values parts separate entries of the source, which are not always exact repeats. Equal values may be shown once.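 Five compound concentrations were applied to cells in 96-well plates for 48 hours; endpoints were derived by simple linear interpolation of the resulting dose-response curve. GI50 = concentration required for 50% inhibition of growth. TGI is the concentration that stops growth completely.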
Columns and labels:
Experiment in all cases: NCI tumour cell line growth inhibition, 48 h
ACHN renal = test system: ACHN renal
BT-549 breast = test system: BT-549 breast
EKVX NSCLC = test system: EKVX NSCLC
HL-60(TB) leukemia = test system: HL-60(TB) leukemia
HOP-62 NSCLC = test system: HOP-62 NSCLC
MOLT-4 leukemia = test system: MOLT-4 leukemia
NCI-H226 lung = test system: NCI-H226 lung
NCI-H460 lung = test system: NCI-H460 lung
NCI-H522 lung = test system: NCI-H522 lung
SK-MEL-5 melanoma = test system: SK-MEL-5 melanoma

Structure (SMILES) | GI50 (ACHN renal) | TGI (ACHN renal) | GI50 (BT-549 breast) | TGI (BT-549 breast) | GI50 (EKVX NSCLC) | TGI (EKVX NSCLC) | GI50 (HL-60(TB) leukemia) | TGI (HL-60(TB) leukemia) | GI50 (HOP-62 NSCLC) | TGI (HOP-62 NSCLC) | GI50 (MOLT-4 leukemia) | TGI (MOLT-4 leukemia) | GI50 (NCI-H226 lung) | TGI (NCI-H226 lung) | GI50 (NCI-H460 lung) | TGI (NCI-H460 lung) | GI50 (NCI-H522 lung) | TGI (NCI-H522 lung) | GI50 (SK-MEL-5 melanoma) | TGI (SK-MEL-5 melanoma)
C=C1CCC2C3(C)COC(c4cccc(Cl)c4)OC3CCC2(C)C1/C=C/C1=CCOC1=O (stereo unspecified) | > 100 µM | > 100 µM | 6.21 µM | > 100 µM | 2.55 µM | > 100 µM | 8.27 µM | > 100 µM | > 100 µM | > 100 µM | 6.55 µM | > 100 µM | 6.92 µM | > 100 µM | 5.15 µM | > 100 µM | 2.92 µM | > 100 µM | 3.39 µM | > 100 µM
O=[N+]([O-])c1ccc([I+]c2ccccc2)cc1 | 5.15 µM | > 31.6 µM and 18.5 µM | 1.63 µM | 8.12 µM and 3.09 µM | 1.5 µM | 32 µM and 3.32 µM | 3.15 µM | 27.4 µM and 9.73 µM | 1.56 µM | 25.6 µM and 3.3 µM | 3.17 µM | > 26.2 µM and 75.3 µM | 1.45 µM | 19.1 µM and 3.2 µM | 1.78 µM | 11.9 µM and 3.93 µM | 1.52 µM | 4.2 µM and 3.03 µM | 1.54 µM | 21.2 µM and 2.93 µM
COc1cc2nc(-c3ccc(Cl)cc3)cc(OCCCN3CCC(O)CC3)c2cc1OC | 2.43 µM | 10.4 µM | 2.79 µM | 13.3 µM | 1.33 µM | 12.9 µM | 4.27 µM | 18.7 µM | 1.98 µM | 10.4 µM | 1.8 µM | 4.54 µM | 1.39 µM | 3.62 µM | 0.955 µM | 14 µM | 2.19 µM | 5.77 µM | 1.27 µM | 2.56 µM
C/C(=N\NC(=S)Nc1ccccc1)c1ccccn1 | 0.0335 µM | 3.75 µM | 1.87 µM | 13.9 µM | 0.0691 µM | 7.38 µM | < 0.0114 µM | 0.0781 µM | 0.0708 µM | 3.61 µM | < 0.0278 µM | 16.9 µM | 0.217 µM | 2.13 µM | 0.0692 µM | 3.74 µM | 0.207 µM | 1.61 µM | 0.199 µM | 1.56 µM
O=S(=O)(Nc1ccc2ccc3cccc4ccc1c2c34)c1ccccc1 | – | > 100 µM | – | > 100 µM | – | > 100 µM | – | > 100 µM | – | > 100 µM | – | > 100 µM | – | > 100 µM | – | > 100 µM | – | > 100 µM | – | > 100 µM
CCN(CC)c1ccc(/C=C/C2=[N+](C)c3ccccc3C2(C)C)cc1 | 1.48 µM | 14.6 µM | 0.226 µM | 1.96 µM | 0.235 µM | 14 µM | 0.0906 µM | > 100 µM | 0.697 µM | 16.3 µM | 0.557 µM | > 100 µM | 0.992 µM | 18.7 µM | 0.312 µM | 15.8 µM | 0.274 µM | 21.8 µM | 0.28 µM | 1.31 µM
CN(C)CC1CCCC(CN(C)C)C1=O (stereo unspecified) | – | 2.92 µM and 3.52 µM | 3.24 µM and 19.4 µM | 10.7 µM and 38 µM | – | 17.8 µM and 14.1 µM | 0.612 µM and 2.85 µM | 2.03 µM and 7.45 µM | > 73.1 µM and 20.8 µM | > 90.6 µM and 43 µM | 0.293 µM | 1.14 µM and 2.08 µM | 18.6 µM and > 46.5 µM | 35.6 µM and > 69.2 µM | – | 38.5 µM and 33.8 µM | 0.179 µM and 1.06 µM | 0.443 µM and 3.46 µM | – | 21 µM and 30.3 µM
O=C(O)Cc1ccccc1 | > 1000 µM | > 2000 µM | – | > 2000 µM | > 1000 µM | > 2000 µM | > 1000 µM | > 1000 µM | > 1000 µM | > 2000 µM | > 1000 µM | > 1000 µM and 1260 µM | > 1000 µM | > 2000 µM | > 1000 µM | > 1000 µM and 933 µM | > 1000 µM | > 2000 µM | > 1000 µM | > 2000 µM
O=C(/C=C/c1cccnc1)/C=C/c1cccnc1 | 2.19 µM | 5.48 µM | 1.73 µM | 4.62 µM | 4.74 µM | 21.6 µM | 0.707 µM | – | 6.27 µM | 16.4 µM | 0.31 µM | – | 5.1 µM | 15.7 µM | 2.5 µM | 7.29 µM | 1.77 µM | 4.69 µM | 2.06 µM | 4.7 µM
COc1cc2c(cc1OCCCN1CCN(CCCOc3cc4c(cc3OC)C(=O)C3CCC[C@H]3C=N4)CC1)N=C[C@@H]1CCCC1C2=O (stereo partly specified) | 55.7 µM | > 100 µM | 1.7 µM | > 100 µM | 34.2 µM | > 100 µM | 1.51 µM | 4.1 µM | 4.78 µM | > 100 µM | 0.313 µM | 2.53 µM | 13.2 µM | > 100 µM | 4.45 µM | > 69.9 µM | 0.446 µM | > 29.6 µM | 2.2 µM | 6.4 µM
Cn1cc(-c2csc(-c3cn(C)c4ncccc34)n2)c2ccccc21 | 0.899 µM | 16.6 µM | 0.409 µM | 26.2 µM | 0.906 µM | > 100 µM | 0.283 µM | 18.8 µM | 0.622 µM | 19.3 µM | 0.613 µM | > 52.2 µM | 0.86 µM | 26.7 µM | 0.336 µM | 13.5 µM | 0.0889 µM | 1.16 µM | 0.286 µM | 16.2 µM
CC1OC(OC2C(OC3CCC4(C)C(CCC5(C)C4CC=C4C6CC(C)(C)CCC6(CO)C(O)CC45C)C3(C)C)OC(C(=O)O)C(OC3OC(COC4OC(CO)C(O)C(O)C4O)C(O)C(O)C3O)C2O)C(O)C(O)C1O (stereo unspecified) | 4.81 µM | 16.8 µM | 1.15 µM | 2.49 µM | 2.41 µM | 11.5 µM | 1.5 µM | 3.53 µM | 14.8 µM | 30.9 µM | 2.35 µM | 8.42 µM | 3.35 µM | 16.1 µM | 12.1 µM | 24.5 µM | 1.43 µM | 2.95 µM | 11.5 µM | 22.2 µM
O=C1/C(=C\c2ccccc2)CN(C(=O)c2ccccc2F)C/C1=C\c1ccccc1 | 1.85 µM | 3.46 µM | 1.86 µM | 3.58 µM | – | – | 2.78 µM | 7.36 µM | 2.53 µM | 6.57 µM | 2.93 µM | 8.51 µM | 5.6 µM | 21.5 µM | 2.67 µM | 7.35 µM | 1.78 µM | 3.47 µM | 1.7 µM | 3.23 µM

— PubChem BioAssay (NCI)
